Patent US10472352B2, “Rac inhibitors” (Geneyus LLC, priority 2017, dated 2019)

Legend:
[1] = tested on: PSA in LNCaP prostate cancer cells; assay: Inhibition of Increased Protein Levels of PSA (immunoblot); format: cell-based; conditions: 10 nM DHT, 18 hours, 5 uM enzalutamide, 10, 15 or 20 uM 0032661
Procedure: After 18 hours protein was harvested. SDS-PAGE followed by immunoblotting of samples was performed using standard techniques. Protein lysates were immunoblotted for the Androgen Receptor (AR), PSA, and Actin.

[2] = tested on: estrogen receptor response genes Cyclin D1 and pS2 in MCF7 breast cancer cells; assay: Inhibition of Estrogen Receptor Target Gene Protein Expression (immunoblot); format: cell-based; conditions: MCF7, 10 nM E2, 18 hours; 1 uM fulvestrant; 5 or 10 uM 0032661
Procedure: After 18 hours, protein was harvested. SDS-PAGE followed by immunoblotting of samples was performed using standard techniques. Protein lysates were immunoblotted for Estrogen Receptor (ER), Cyclin D1, pS2, and Actin.

[3] = tested on: estrogen receptor response gene (SDF) in MCF7 breast cancer cells; assay: Inhibition of Estrogen Receptor Target Gene Transcription (SDF qPCR); format: cell-based; conditions: MCF7, 10 nM estradiol, 4 hours; 1 uM fulvestrant; 5 or 10 uM 0032661
Procedure: After 4 hours, RNA was harvested and converted into cDNA. qPCR analysis for SDF was performed on all samples and normalized to expression of GAPDH. The data, shown in FIG. 7, is expressed as fold change relative to SDF expression of the cFBS sample.

[4] = tested on: BT474 breast cancer cells; assay: BT474 Four (4) Day Cell Viability Assay; format: cell-based; conditions: BT474, 4 days, 32661 0 μM
Procedure: BT474 breast cancer cells that are Estrogen Receptor Positive and HER2+ were grown in 5% cFBS. 5,000 cells were seeded into each well of a 96-well plate and treated with escalating doses of lapatinib, fulvestrant, and 32661.

[5] = target: His-Rac1 / GST-PBD (PAK Binding Domain) (Homo sapiens, UniProt P63000); assay: Rac Activation AlphaScreen Assay (Rac1 AS); format: biochemical; conditions: 500 nM GTPγS, 37° C., 1 hour; 'positive' = signal generated was higher than the positive control
Procedure: AlphaScreen® assays were performed in 96-well microplates in a final reaction volume of 60 μl. Recombinant His-Rac1, recombinant GST-PBD (PAK Binding Domain), donor and acceptor beads (PerkinElmer), and inhibitors were incubated in exchange buffer (20 mM Tris pH 7.5, 50 mM NaCl, 1 mM MgCl2, 1 mM EDTA, 500 nM GTPγS (guanosine 5′-[γ-thio]triphosphate)) at 37° C. Readings were performed on a Tecan M1000 pro microplate reader after 1 hour.

Rac1 protein = target: T1, Rac1 protein (Homo sapiens, UniProt P63000); assay: Fluorescence Polarization Assay (Rac1 FP); format: binding; conditions: 125 nM his-tagged Rac1, 12.5 nM Bodipy-TR GTPγS, 30 minutes at 37° C.
T1 construct: purchased Cytoskeleton Inc. RC01
Procedure: Direct binding of Rac1 compound inhibitors to Rac1 protein was performed using fluorescence polarization (FP). Briefly, Rac1 inhibitors were initially dissolved in DMSO and then serial drug dilutions in exchange buffer (20 mM Tris pH 7.5, 50 mM NaCl, 1 mM MgCl, 1 mM EDTA) were prepared in a flat black 96-well half-area plate (Greiner). Recombinant his-tagged Rac1 protein (Cytoskeleton Inc. Cat. # RC01) was added to the inhibitors at a final concentration of 125 nM along with 12.5 nM Bodipy-TR GTPγS (Life Technologies Inc. Cat. # G35780) in exchange buffer and incubated for 30 minutes at 37° C. in exchange buffer. After 30 minutes of incubation. FP was measured on the M1000 Pro (Tecan) fluorescent plate reader with 590 nm±5 nm excitation and 625 nm±5 nm emission spectra settings.

[6] = tested on: MCF-7 human breast cancer cell line; assay: Cell Viability Assay (MCF7), PrestoBlue; format: cell-based; conditions: MCF7, 72 h, MCF-7 cells, three days after drug treatment
Procedure: In order to determine a compound's effect on cell viability, PrestoBlue assays were performed as previously described by Kuhn et al. (2013) with modifications. MCF-7 human breast cancer and IGR-1 human melanoma cell lines were seeded into 96-well plates 24 hours prior to addition of drug. Cells were treated with 0 to 200 μM (11 concentrations) of compound solubilized in DMSO, adjusting the final concentration of DMSO to 1% in the well. Three days after drug treatment, cell viability was measured by adding PrestoBlue (Life Technologies Ltd.; cat. No. A13262) reagent directly to wells containing media/drug to reach a final concentration of 10%. PrestoBlue is a modified molecule of the common Alamar Blue probe used to determine viability based on the ability of a cell to metabolize a nonfluorescent compound (resazurin) to a florescent molecule (resorufin). Following a 1 hour incubation period, total well fluorescence was measured using the microplate reader M1000 pro (Tecan) with excitation 560-5 nm and emission 590-5 nm. […] The percentage of living cells was then computed by comparison with control wells. Kuhn, Jonas et al., Assay and Drug Development Technologies, March 2013, Label-Free Cytotoxicity Screening Assay by Digital Holographic Microscopy.

Question: How did the “increase in protein levels of PSA” value [1] turn out when `CNC(=O)c1ccc(N2C(=S)N(c3ccc(C#N)c(C(F)(F)F)c3)C(=O)C2(C)C)cc1F` [enzalutamide, reference compound] was run?
Answer: Its value is “inhibit the increase in protein levels of PSA”.

Question: `C[C@]12CC[C@@H]3c4ccc(O)cc4C[C@@H](CCCCCCCCC[S+]([O-])CCCC(F)(F)C(F)(F)F)[C@H]3[C@@H]1CC[C@@H]2O` (some centres unmarked) [Fulvestrant, fulvestrant, reference compound] was tested. Which “protein levels of estrogen receptor target genes (Cyclin D1, pS2)” value [2] did it give?
Answer: Its value is “inhibit the increase in protein levels of estrogen receptor target genes”.

Question: And the “estrogen receptor target gene transcription (SDF)” value [3]?
Answer: Its value is “inhibit the estrogen receptor target gene transcription”.

Question: And the cellular viability ([4]; fulvestrant 6.9 nM, lapatinib 0.0 nM)?
Answer: Its cellular viability is 94%.

Question: What about the cellular viability ([4]; fulvestrant 6.9 nM, lapatinib 6.9 nM) of the same compound?
Answer: Its cellular viability is 96%.

Question: And the cellular viability ([4]; fulvestrant 6.9 nM, lapatinib 20.6 nM)?
Answer: Its cellular viability is 96%.

Question: And the cellular viability ([4]; fulvestrant 6.9 nM, lapatinib 61.7 nM)?
Answer: Its cellular viability is 87%.

Question: And the cellular viability ([4]; fulvestrant 6.9 nM, lapatinib 185.2 nM)?
Answer: Its cellular viability is 85%.

Question: And the cellular viability ([4]; fulvestrant 6.9 nM, lapatinib 555.6 nM)?
Answer: Its cellular viability is 79%.

Question: And the cellular viability ([4]; fulvestrant 6.9 nM, lapatinib 1666.7 nM)?
Answer: The cellular viability was 69%.

Question: What about the cellular viability ([4]; fulvestrant 6.9 nM, lapatinib 3333.0 nM) of the same compound?
Answer: Its cellular viability is 51%.

Question: What about the cellular viability ([4]; fulvestrant 20.6 nM, lapatinib 0.0 nM) of the same compound?
Answer: The cellular viability was 94%.

Question: And the cellular viability ([4]; fulvestrant 20.6 nM, lapatinib 6.9 nM)?
Answer: Its cellular viability is 88%.

Question: What about the cellular viability ([4]; fulvestrant 20.6 nM, lapatinib 20.6 nM) of the same compound?
Answer: Its cellular viability is 88%.

Question: What about the cellular viability ([4]; fulvestrant 20.6 nM, lapatinib 61.7 nM) of the same compound?
Answer: Its cellular viability is 83%.

Question: And the cellular viability ([4]; fulvestrant 20.6 nM, lapatinib 185.2 nM)?
Answer: Its cellular viability is 82%.

Question: What about the cellular viability ([4]; fulvestrant 20.6 nM, lapatinib 555.6 nM) of the same compound?
Answer: The cellular viability was 78%.

Question: What about the cellular viability ([4]; fulvestrant 20.6 nM, lapatinib 1666.7 nM) of the same compound?
Answer: Its cellular viability is 63%.

Question: What about the cellular viability ([4]; fulvestrant 20.6 nM, lapatinib 3333.0 nM) of the same compound?
Answer: The cellular viability was 47%.

Question: What about the cellular viability ([4]; fulvestrant 61.7 nM, lapatinib 0.0 nM) of the same compound?
Answer: Its cellular viability is 91%.

Question: And the cellular viability ([4]; fulvestrant 61.7 nM, lapatinib 6.9 nM)?
Answer: Its cellular viability is 89%.

Question: And the cellular viability ([4]; fulvestrant 61.7 nM, lapatinib 20.6 nM)?
Answer: The cellular viability was 89%.

Question: What about the cellular viability ([4]; fulvestrant 61.7 nM, lapatinib 61.7 nM) of the same compound?
Answer: The cellular viability was 90%.

Question: What about the cellular viability ([4]; fulvestrant 61.7 nM, lapatinib 185.2 nM) of the same compound?
Answer: Its cellular viability is 88%.

Question: And the cellular viability ([4]; fulvestrant 61.7 nM, lapatinib 555.6 nM)?
Answer: Its cellular viability is 77%.

Question: What about the cellular viability ([4]; fulvestrant 61.7 nM, lapatinib 1666.7 nM) of the same compound?
Answer: Its cellular viability is 66%.

Question: And the cellular viability ([4]; fulvestrant 61.7 nM, lapatinib 3333.0 nM)?
Answer: Its cellular viability is 34%.

Question: What about the cellular viability ([4]; fulvestrant 185.2 nM, lapatinib 0.0 nM) of the same compound?
Answer: Its cellular viability is 94%.

Question: What about the cellular viability ([4]; fulvestrant 185.2 nM, lapatinib 6.9 nM) of the same compound?
Answer: The cellular viability was 91%.

Question: And the cellular viability ([4]; fulvestrant 185.2 nM, lapatinib 20.6 nM)?
Answer: Its cellular viability is 91%.

Question: What about the cellular viability ([4]; fulvestrant 185.2 nM, lapatinib 61.7 nM) of the same compound?
Answer: Its cellular viability is 91%.

Question: And the cellular viability ([4]; fulvestrant 185.2 nM, lapatinib 185.2 nM)?
Answer: Its cellular viability is 88%.

Question: And the cellular viability ([4]; fulvestrant 185.2 nM, lapatinib 555.6 nM)?
Answer: Its cellular viability is 74%.

Question: And the cellular viability ([4]; fulvestrant 185.2 nM, lapatinib 1666.7 nM)?
Answer: The cellular viability was 63%.

Question: What about the cellular viability ([4]; fulvestrant 185.2 nM, lapatinib 3333.0 nM) of the same compound?
Answer: Its cellular viability is 36%.

Question: What about the cellular viability ([4]; fulvestrant 555.6 nM, lapatinib 0.0 nM) of the same compound?
Answer: The cellular viability was 87%.

Question: What about the cellular viability ([4]; fulvestrant 555.6 nM, lapatinib 6.9 nM) of the same compound?
Answer: Its cellular viability is 90%.

Question: And the cellular viability ([4]; fulvestrant 555.6 nM, lapatinib 20.6 nM)?
Answer: The cellular viability was 90%.

Question: What about the cellular viability ([4]; fulvestrant 555.6 nM, lapatinib 61.7 nM) of the same compound?
Answer: Its cellular viability is 88%.

Question: And the cellular viability ([4]; fulvestrant 555.6 nM, lapatinib 185.2 nM)?
Answer: Its cellular viability is 82%.

Question: And the cellular viability ([4]; fulvestrant 555.6 nM, lapatinib 555.6 nM)?
Answer: Its cellular viability is 74%.

Question: And the cellular viability ([4]; fulvestrant 555.6 nM, lapatinib 1666.7 nM)?
Answer: Its cellular viability is 58%.

Question: What about the cellular viability ([4]; fulvestrant 555.6 nM, lapatinib 3333.0 nM) of the same compound?
Answer: Its cellular viability is 26%.

Question: What about the cellular viability ([4]; fulvestrant 1666.7 nM, lapatinib 0.0 nM) of the same compound?
Answer: The cellular viability was 80%.

Question: What about the cellular viability ([4]; fulvestrant 1666.7 nM, lapatinib 6.9 nM) of the same compound?
Answer: The cellular viability was 79%.

Question: What about the cellular viability ([4]; fulvestrant 1666.7 nM, lapatinib 20.6 nM) of the same compound?
Answer: The cellular viability was 76%.

Question: And the cellular viability ([4]; fulvestrant 1666.7 nM, lapatinib 61.7 nM)?
Answer: The cellular viability was 75%.

Question: What about the cellular viability ([4]; fulvestrant 1666.7 nM, lapatinib 185.2 nM) of the same compound?
Answer: Its cellular viability is 68%.

Question: And the cellular viability ([4]; fulvestrant 1666.7 nM, lapatinib 555.6 nM)?
Answer: The cellular viability was 65%.

Question: And the cellular viability ([4]; fulvestrant 1666.7 nM, lapatinib 1666.7 nM)?
Answer: Its cellular viability is 47%.

Question: And the cellular viability ([4]; fulvestrant 1666.7 nM, lapatinib 3333.0 nM)?
Answer: The cellular viability was 15%.

Question: And the cellular viability ([4]; fulvestrant 3333.0 nM, lapatinib 0.0 nM)?
Answer: The cellular viability was 60%.

Question: And the cellular viability ([4]; fulvestrant 3333.0 nM, lapatinib 6.9 nM)?
Answer: The cellular viability was 53%.

Question: What about the cellular viability ([4]; fulvestrant 3333.0 nM, lapatinib 20.6 nM) of the same compound?
Answer: Its cellular viability is 53%.

Question: And the cellular viability ([4]; fulvestrant 3333.0 nM, lapatinib 61.7 nM)?
Answer: Its cellular viability is 26%.

Question: And the cellular viability ([4]; fulvestrant 3333.0 nM, lapatinib 185.2 nM)?
Answer: Its cellular viability is 24%.

Question: What about the cellular viability ([4]; fulvestrant 3333.0 nM, lapatinib 555.6 nM) of the same compound?
Answer: The cellular viability was 32%.

Question: What about the cellular viability ([4]; fulvestrant 3333.0 nM, lapatinib 1666.7 nM) of the same compound?
Answer: Its cellular viability is 20%.

Question: What about the cellular viability ([4]; fulvestrant 3333.0 nM, lapatinib 3333.0 nM) of the same compound?
Answer: Its cellular viability is 4%.

Question: How did the IC50 [5] turn out when `O=C1COCCN1c1cccc(NCCCCCCSc2ccnc3cc(C(F)(F)F)ccc23)c1` [Compound 0033306, 4-(3-{(6-{[7-(trifluoromethyl)quinolin-4-yl]sulfanyl)hexyl}amino]phenyl} morpholin-3-one] was run?
Answer: The IC50 was 8.2 µM.

Question: And the IC50 (Rac1 protein)?
Answer: The IC50 was 1.54 µM.

Question: And the IC50 [6]?
Answer: Its IC50 is 3.58 µM.
